Measured values reported in publication PMC13379236 (Cell reports, 2026).
“Also recorded” adds a separate entry of the source.

Columns and labels:
[1] = tested on: innate immune response; conditions: cited from earlier work
[2] = tested on: ZYG11B; conditions: cited from earlier work
[3] = tested on: NLRP1 inflammasome; type: cell-based, human
[4] = tested on: ZYG11B; type: cell-based, human

ORF10: SARS-CoV-2 protein ORF10, overexpressed
effect on innate immune response [1]: can suppress the innate immune response
interaction with ZYG11B [2]: interacts with ZYG11B
effect of ORF10 on inflammasome activation with NLRP1 E133K [3]: no decrease in inflammasome activation
inhibition of HRV 3Cpro-mediated activation of wild-type NLRP1 [3]: could inhibit HRV 3Cpro-mediated activation of NLRP1
ORF10 binding to ZYG11B E644K [4]: decrease the binding
ORF10 binding to ZYG11B K515E [4]: substantially enhance binding
ORF10 binding to ZYG11B R466A [4]: minimal effect; also recorded: did not strongly affect ORF10 binding
